Assay results from patent US20240368174A1, “Antiviral Heterocyclic Compounds” (Enanta Pharmaceuticals, Inc., priority 2023, published 2024).

Tested on: HMPV clinical isolate A2 strain TN 94-49
Assay: HMPV antiviral assay, Method 2 (LLC-MK2 cells with CP-100-356, ATP-Lite)
Type: cell-based
Details: human metapneumovirus; hMPV A2 TN/94-49, LLC-MK2 cells with CP-100-356, Method 2
Experimental: In vitro HMPV antiviral activity was evaluated using the clinical isolate A2 strain TN 94-49 (obtained from Dr. John Williams, Vanderbilt University, Tennessee) and LLC-MK2 cells (Millipore Sigma CB_85062804), an immortalized kidney epithelial cell line from Macaca mulatta. Compounds were resuspended in dimethyl sulfoxide (DMSO) at 10 mM, serially diluted and added to a 384-well source plate. Subsequently, the compounds were diluted and transferred onto 384-well assay plates using the Echo-650 automated liquid handling system (Beckman Coulter, Indiana). The test compounds were assessed in duplicate at a top concentration of 200 nM followed by 2.5-fold serial dilutions to give a total of 10 concentration points. DMSO control wells were also included on the assay plates and were either infected or not, acting as positive and negative controls. A2 TN 94-49 virus infections were performed in-suspension with LLC-MK2 cells. The cells were washed twice with PBS and removed from the cell-culture flask with 0.25% trypsin-EDTA (Thermo Fisher Scientific, MA). The trypsin-EDTA was inactivated by resuspending in 2% fetal bovine serum (FBS) and OptiMEM (ThermoFisher Scientific, MA) containing 1% antibiotic-antimycotic. Cells were pelleted by centrifuging for 5 minutes at 800 rpm, the supernatant was removed, and cells were re-suspended and washed in PBS plus 100 μg/mL CaCl2). This step was performed twice. Cells were then re-suspended in serum-free (SF)-OptiMEM containing 4 μg/mL TPCK-Trypsin (Sigma Aldrich, MO), 1% antibiotic-antimycotic (ThermoFisher Scientific, MA), 100 μg/mL CaCl2), and 4 μM of CP-100-356, a P-glycoprotein inhibitor. Cells were counted and seeded at a density of 5,000 cells/well, 12.5 μL/well. Virus infections were done at a multiplicity of infection (MOI) of 0.16 with 12.5 μL added per well. Virus infections were performed in infection media which contained SF-OptiMEM, 100 μg/mL CaCl2) and 1% antibiotic-antimycotic. HMPV viral stocks are suspended in infection media+5% glycerol, thus an equal volume of infection media+5% glycerol was added to uninfected wells to equalize the final % glycerol across all wells of the assay plate. The final concentration of TPCK-trypsin was 2 μg/mL. The final concentration of CP-100-356 was 2 μM. The assay plates were incubated at 37° C., 5% CO2 for 7 days. After 7 days incubation, 12.5 μL of ATP-Lite (PerkinElmer, MA) was added to each well and the raw luminescence values were determined using the Envision 2104 (Perkin Elmer, MA). The average of the raw luminescence values for the cells and virus only positive control wells was subtracted from all conditions tested and the percent cell health was determined by dividing these values by the average of the cells only negative control wells. EC50 values were then calculated by non-linear regression using a four-parameter curve logistic equation. The curve fit model employed was XLFit Dose Response One Site Model 200: y=(A+(B/(1+((x/C)^D)))), where A is the minimum y value, B is the maximum y value, C is the log EC50 value, and D is the slope factor.

## COc1cc(C(=O)NC[C@@](O)(c2cccc(F)n2)c2cc3c(c(-c4cc(Cl)c(F)cc4F)n2)OC[C@]3(C)C(N)=O)cc2cc(C3CC3)nn12 [Example 206]
  EC50: < 200 nM

## COc1cc(C(=O)NC[C@](O)(c2cc3c(c(-c4ccnc(F)c4Cl)n2)OC[C@]3(C)C(N)=O)C2CC2)cc2cn(C(F)F)nc12 [Example 207]
  EC50: < 200 nM

## COc1cc(C(=O)NC[C@](O)(c2cc3c(c(-c4ccnc(F)c4Cl)n2)OC[C@]3(C)C(N)=O)C2CC2)cc2oc(C3CC3)nc12 [Example 208]
  EC50: < 200 nM

## COc1cc(C(=O)NC[C@](O)(c2cc3c(c(-c4ccnc(F)c4Cl)n2)OC[C@]3(C)C(N)=O)C2CC2)cc2cn(C3(F)CC3)nc12 [Example 209]
  EC50: < 200 nM

## COc1cc(C(=O)NCC(O)(c2ccc(F)cn2)c2cc3c(c(-c4cc(Cl)c(F)cc4F)n2)OC[C@]3(C)C(N)=O)cc2cn(C3CC3)nc12 (stereo partly shown) [Example 210]
  EC50: < 200 nM

## C[C@]1(C(N)=O)COc2c1cc([C@@](O)(CNC(=O)c1cc(OC(F)F)c3nc(C4CC4)oc3c1)c1ccccc1)nc2-c1cc(Cl)c(F)cc1F [Example 216]
  EC50: < 200 nM

## C[C@]1(C(N)=O)COc2c1cc([C@@](O)(CNC(=O)c1ccc3nc(C4(F)CC4)oc3c1)c1ccccc1)nc2-c1cc(Cl)c(F)cc1F [Example 219]
  EC50: < 200 nM

## [2H]c1nc2c(OC)cc(C(=O)NC[C@@](O)(c3ccccc3)c3cc4c(c(-c5cc(Cl)c(F)cc5F)n3)OC[C@]4(C)C(N)=O)cc2cc1Cl [Example 220]
  EC50: < 200 nM

## C[C@]1(C(N)=O)COc2c1cc([C@@](O)(CNC(=O)c1ccc3nc(C4CCC4)oc3c1)c1ccccc1)nc2-c1cc(Cl)c(F)cc1F [Example 221]
  EC50: > 200 nM

## C[C@]1(C(N)=O)COc2c1cc([C@@](O)(CNC(=O)c1ccc3nc(C(F)F)oc3c1)c1ccccc1)nc2-c1cc(Cl)c(F)cc1F [Example 222]
  EC50: > 200 nM

## C[C@]1(C(N)=O)COc2c1cc([C@@](O)(CNC(=O)c1ccc3nc(-c4ccc5nc(C(F)F)oc5c4)oc3c1)c1ccccc1)nc2-c1cc(Cl)c(F)cc1F [Example 223]
  EC50: > 200 nM

## CC(C)c1nc2ccc(C(=O)NC[C@@](O)(c3ccccc3)c3cc4c(c(-c5cc(Cl)c(F)cc5F)n3)OC[C@]4(C)C(N)=O)cc2o1 [Example 224]
  EC50: > 200 nM

## COc1cc(C(=O)NC[C@](O)(c2cc3c(c(-c4cc(Cl)c(F)cc4F)n2)OC[C@]3(C)C(N)=O)C2CC2)cc2cc(Cl)cnc12 [Example 225]
  EC50: < 200 nM

## C[C@]1(C(N)=O)COc2c1cc([C@@](O)(CNC(=O)c1cc(OC3CC3)c3ncc(Cl)cc3c1)C1CC1)nc2-c1cc(Cl)c(F)cc1F [Example 226]
  EC50: < 200 nM

## C[C@]1(C(N)=O)COc2c1cc([C@@](O)(CNC(=O)c1ccc3nc(-c4ccccc4)oc3c1)c1ccccc1)nc2-c1cc(Cl)c(F)cc1F [Example 227]
  EC50: > 200 nM

## C[C@]1(C(N)=O)COc2c1cc([C@@](O)(CNC(=O)c1cc(C(F)(F)F)c3nn(C4CC4)cc3c1)c1ccccc1)nc2-c1cc(Cl)c(F)cc1F [Example 228]
  EC50: < 200 nM

## C[C@]1(C(N)=O)COc2c1cc([C@@](O)(CNC(=O)c1cc(C(F)F)c3nn(C4CC4)cc3c1)c1ccccc1)nc2-c1cc(Cl)c(F)cc1F [Example 229]
  EC50: < 200 nM

## C[C@]1(C(N)=O)COc2c1cc([C@@](O)(CNC(=O)c1ccc3nc(Cc4ccccc4)oc3c1)c1ccccc1)nc2-c1cc(Cl)c(F)cc1F [Example 230]
  EC50: > 200 nM

## C[C@]1(C(N)=O)COc2c1cc([C@@](O)(CNC(=O)c1cc(OC(F)F)c3ncc(Cl)cc3c1)c1ccccc1)nc2-c1cc(Cl)c(F)cc1F [Example 231]
  EC50: < 200 nM

## C[C@]1(C(N)=O)COc2c1cc([C@@](O)(CNC(=O)c1cc(Cl)c3nc(C4CC4)oc3c1)c1ccccc1)nc2-c1cc(Cl)c(F)cc1F [Example 232]
  EC50: < 200 nM

## C[C@]1(C(N)=O)COc2c1cc([C@@](O)(CNC(=O)c1cc(OC3CC3)c3nc(C4CC4)oc3c1)c1ccccc1)nc2-c1cc(Cl)c(F)cc1F [Example 233]
  EC50: < 200 nM

## Cc1nc2c(OC3CC3)cc(C(=O)NC[C@@](O)(c3ccccc3)c3cc4c(c(-c5cc(Cl)c(F)cc5F)n3)OC[C@]4(C)C(N)=O)cc2o1 [Example 234]
  EC50: < 200 nM
